Laboratory results published in US20050256034A1, “Dioxolane analogs for improved inter-cellular delivery” (priority 2000, published 2005).
“And” between values parts separate entries of the source, which are not always exact repeats. Equal values may be shown once. Where a name gives a salt, the structure may show the parent alone. Read-outs that look alike come from different tables or passages of the source. Values belong to the molecule of their own block, whether it stands above or below them.

Legend:
[1] = test system: CEM/dCK-; assay: MMT or WST-1 assay at 72 hr; assay type: cell-based; conditions: CEM/dCK- versus CCRF-CEM
[2] = 3H-Thymidine Incorporation Assay (24 hr drug, wash, another 48 hr; 72 hr assay); assay type: cell-based; conditions: for Resistance Factor = Ratio of dCK- on Wild-type CCRF-CEM / Factor (Resistance Factor = Ratio of dCK- on Wild-type CCRF-CEM): ratio of IC50 CEM/dCK- to IC50 CCRF-CEM; for Factor (Resistance Factor = Ratio of dCK- on Wild-type CCRF-CEM): 24 h exposure
[3] = CCRF-CEM, read-out: IC50 (3H-TdR incorporation at 72 hr) CCRF-CEM 24 h, CCRF-CEM T-cell leukemia, 24 hr exposure to drug, wash, another 48 hr
[4] = MCF7, read-out: IC50 (3H-TdR incorporation at 72 hr) MCF-7 24 h, MCF-7 human breast carcinoma, 24 hr exposure to drug, wash, another 48 hr
[5] = NCI-H460, read-out: IC50 (3H-TdR incorporation at 72 hr) H-460 24 h, H-460 human lung carcinoma, 24 hr exposure to drug, wash, another 48 hr
[6] = SF-268, read-out: IC50 (3H-TdR incorporation at 72 hr) SF-268 24 h, SF-268 human central nervous system tumor, 24 hr exposure to drug, wash, another 48 hr

Structure (SMILES): CC(C)C[C@H](NC(=O)[C@H](C)NC(=O)OC(C)(C)C)C(=O)Nc1ccn([C@@H]2CO[C@H](CO)O2)c(=O)n1 [Compound 263, (1-{1-[1-(2-HYDROXY- METHYL-[1,3]DIOXO- LAN-4-YL)-2-OXO-1,2-DI- HYDRO-PYRIMIDIN-4-YLCARBA- MOYL]-3-METHYL-BUTYL- CARBAMOYL}-ETHYL)-CARBAMIC ACID TERT-BUTYL ESTER]
- Resistance Factor [1]: >5 and >7

Structure (SMILES): CC(C)C[C@H](N)C(=O)Nc1ccn([C@@H]2CO[C@H](CO)O2)c(=O)n1 [Compound 257, 2-AMINO-4-METHYL-PENTANOIC ACID[1-(2-HYDROXY- METHYL-[1,3]DIOXO- LAN-4-yl)-2-OXO-1,2-DIHYDRO-PYRI- MIDIN-4-YL]-AMIDE]
- Resistance Factor [1]: >19

Structure (SMILES): Nc1ccn([C@@H]2CO[C@H](COC(=O)c3ccc([N+](=O)[O-])cc3)O2)c(=O)n1 [Compound 204, 4-NITRO-BENZOIC ACID 4-(4-A- MINO-2-OXO-2H-PYRI- MIDIN-1-YL)-[1,3]DI- OXOLAN-2-YL METHYL ESTER]
- IC50 [2, 3]: 0.012 µM
- IC50 ([2]; CCRF-CEM, read-out: IC50 (3H-TdR incorporation at 72 hr) CEM/dCK- 24 h, CEM/dCK- (CCRF-CEM deoxycytidine kinase-deficient), 24 hr exposure to drug, wash, another 48 hr): 19 µM
- IC50 [2, 4]: 0.0086 µM
- IC50 [2, 5]: 0.015 µM
- IC50 [2, 6]: 0.025 µM
- Resistance Factor = Ratio of dCK- on Wild-type CCRF-CEM [2]: 1 600

- IC50 ([2]; NCI-H460, read-out: IC50 in μM (3H-TdR incorporation at 72 hr) H-460 (72 h), H-460 human lung carcinoma, 72 h exposure): 0.0053 µM
Structure (SMILES): CC(=O)OC[C@H]1OC[C@@H](n2ccc(N)nc2=O)O1 [Compound 27]

Structure (SMILES): O=C(Nc1ccn([C@@H]2CO[C@H](CO)O2)c(=O)n1)Oc1ccc(Cl)cc1.O=C(O)C(F)(F)F [Compound 104, [1-(2-HYDROXYMETHYL-[1,3]DI- OXOLAN-4-YL)-2-OX- O-1,2-DIHYDRO-PYRI- MIDIN-4-YL]-CARBAMIC ACID 4-CHLORO-PHENYL ESTER TRIFLUOROACETATE SALT]
- Factor (Resistance Factor = Ratio of dCK- on Wild-type CCRF-CEM) [2]: >476

Structure (SMILES): COC(OC)(OC[C@H]1OC[C@@H](n2ccc(N)nc2=O)O1)c1ccccc1 [Compound 139, 4-AMINO-1-[2-(DI- METHOXY-PHENYL-METH- OXYMETHYL)-[1,3]DI- OXOLAN-4-YL]-1H-PYRI- MIDIN-2-ONE]
- Factor (Resistance Factor = Ratio of dCK- on Wild-type CCRF-CEM) [2]: >250

Structure (SMILES): CCCCC(C)C(=O)OC[C@H]1OC[C@@H](n2ccc(/N=C/N(C)C)nc2=O)O1 (stereo partly drawn) [Compound 64, (2S,4S)-2-(2″-METHYL-HEXANO- ICOXYMETHYL)-4-(4′-NN-DI- METHYLAMINOMETHYLENE-CYTO- SIN-1′-YL)-1,3-DI- OXOLANE]
- Factor (Resistance Factor = Ratio of dCK- on Wild-type CCRF-CEM) [2]: 2,000

- IC50 [2, 3]: 0.1 µM
- IC50 [2, 4]: 6.9 µM
- IC50 [2, 5]: 5.3 µM
- IC50 [2, 6]: 21 µM
Structure (SMILES): CC(C)(C(=O)OC[C@H]1OC[C@@H](n2ccc(N)nc2=O)O1)c1ccccc1[N+](=O)[O-].Cl [Compound 224, 2-METHYL-2-(2-NITRO-PHE- NYL)-PROPIONIC ACID 4-(4-AMINO-2-OXO-2H-PYRI- MIDIN-1-YL)-[1,3]DI- OXOLAN-2-YLMETHYL ESTER HYDROCHLORIDE SALT]
- Resistance Factor = Ratio of dCK- on Wild-type CCRF-CEM [2]: > 1000

Structure (SMILES): COc1ccc(OC(=O)Nc2ccn([C@@H]3CO[C@H](COC(=O)Oc4ccc(OC)cc4)O3)c(=O)n2)cc1 [Compound 63, CARBONIC ACID 4-[4-(4-METH- OXY-PHENOXY- CARBONYLAMINO)-2-OX- O-2H-PYRIMIDIN-1-YL]-[1,3]DI- OXOLAN-2-YLMETHYL ESTER 4-METH- OXY-PHENYL ESTER]
- Factor (Resistance Factor = Ratio of dCK- on Wild-type CCRF-CEM) [2]: 2,778

Structure (SMILES): COC1(OC[C@H]2OC[C@@H](n3ccc(N)nc3=O)O2)CCCCC1 [Compound 113, 4-AMINO-1-([2-(1-METH- OXY-CYCLO- HEXYLOXYMETHYL)-[1,3]DI- OXOLAN-4-YL]-1H-PYRI- MIDIN-2-ONE]
- Factor (Resistance Factor = Ratio of dCK- on Wild-type CCRF-CEM) [2]: >1 667

- IC50 ([2]; MCF7, read-out: IC50 in μM (3H-TdR incorporation at 72 hr) MCF-7 24 h, MCF-7 human breast carcinoma, 24 h exposure to drug, wash, another 48 hr): 2 µM
- IC50 ([2]; NCI-H460, read-out: IC50 in μM (3H-TdR incorporation at 72 hr) H-460 24 h, H-460 human lung carcinoma, 24 h exposure to drug, wash, another 48 hr): 7 µM
Structure (SMILES): Nc1ccn([C@@H]2CO[C@H](COCOCc3ccccc3)O2)c(=O)n1 [Compound 56, 4-AMINO-1-(2-BENZYLOXY- METHOXYMETHYL-[1,3]DI- OXOLAN-4-YL)-1H-PYRI- MIDIN-2-ONE]

Structure (SMILES): CC(C)OC(=O)OCOC[C@H]1OC[C@@H](n2ccc(N)nc2=O)O1.O=C(O)C(F)(F)F.O=C(O)C(F)(F)F [Compound 68, CARBONIC ACID 4-(4-A- MINO-2-OXO-2H-PYRI- MIDIN-1-YL)-[1,3]DI- OXOLAN-2-YL- METHOXYMETHYL ESTER ISOPROPYL ESTER TRIFLUOROACETIC ACID SALT]
- Factor (Resistance Factor = Ratio of dCK- on Wild-type CCRF-CEM) [2]: 3,333

Structure (SMILES): COc1ccc(C(OC[C@H]2OC[C@@H](n3ccc(N)nc3=O)O2)(c2ccccc2)c2ccc(OC)cc2)cc1 [Compound 123, 4-AMINO-1-{2-[BIS-(4-METH- OXY-PHENYL)-PHENYL-METH- OXYMETHYL]-[1,3]DI- OXOLAN-4-YL)-1H-PYRI- MIDIN-2-ONE]
- Factor (Resistance Factor = Ratio of dCK- on Wild-type CCRF-CEM) [2]: 17

Structure (SMILES): CC(=O)OCC1OC2OC(C)(OC[C@H]3OC[C@@H](n4ccc(NC(=O)OCc5ccccc5)nc4=O)O3)OC2C(OC(C)=O)C1OC(C)=O (some centres unmarked) [Compound 148, Acetic acid 6-acetoxy-5-acetoxy-methyl-2-[4-(4-benzyl-oxycarbonylamino-2-ox-o-2H-pyrimidin-1-yl)-[1,3]di-oxolan-2-ylmeth-oxy]-2-methyl-tetra-hydro-[1,3]di-oxolo[4,5-b]py-ran-7-yl ester]
- Factor (Resistance Factor = Ratio of dCK- on Wild-type CCRF-CEM) [2]: 4

Structure (SMILES): Nc1ccn([C@@H]2CO[C@H](COC(=O)CCCCCNCc3ccccc3)O2)c(=O)n1 [Compound 83, 6-Benzylamino-hexanoic acid 4-(4-amino-2-oxo-2H-pyri-midin-1-yl)-[1,3]di-oxolan-2-yl-methyl ester bis trifluoroacetate salt]
- Factor (Resistance Factor = Ratio of dCK- on Wild-type CCRF-CEM) ([2]; bis trifluoroacetate salt): 4,545

Structure (SMILES): Nc1ccn([C@@H]2CO[C@H](COC(=O)c3ccc(C(F)(F)F)cc3)O2)c(=O)n1 [Compound 189, 4-TRIFLUOROMETHYL-BENZOIC ACID 4-(4-A- MINO-2-OXO-2H-PYRI- MIDIN-1-YL)-[1,3]DI- OXOLAN-2-YL METHYL ESTER]
- IC50 [2, 4]: 0.0033 µM
- IC50 [2, 5]: 0.0012 µM
- IC50 ([2]; read-out: IC50 (3H-TdR incorporation at 72 hr) H-460 24 h, H-460 human lung carcinoma, 24 hr exposure to drug, wash, another 48 hr): 0.00068 µM
- IC50 ([2]; read-out: IC50 (3H-TdR incorporation at 72 hr) MCF-7 24 h, MCF-7 human breast carcinoma, 24 hr exposure to drug, wash, another 48 hr): 0.0037 µM

Structure (SMILES): O=C(NCc1ccccc1)Nc1ccn([C@@H]2CO[C@H](CO)O2)c(=O)n1 [Compound 108, 1-BENZYL-3-[1-(2-HYDROXY- METHYL-[1,3]DI- OXOLAN-4-YL)-2-OX- O-1,2-DIHYDRO-PYRI- MIDIN-4-YL]-UREA]
- Factor (Resistance Factor = Ratio of dCK- on Wild-type CCRF-CEM) [2]: >29

Structure (SMILES): CCOC(=O)Nc1ccn([C@@H]2CO[C@H](COC(=O)OCC)O2)c(=O)n1 [Compound 47, CARBONIC ACID 4-(4-ETH- OXYCARBONYLAMINO-2-OX- O-2H-PYRIMIDIN-1-YL)-[1,3]DI- OXOLAN-2-YL- METHYL ESTER ETHYL ESTER]
- Factor (Resistance Factor = Ratio of dCK- on Wild-type CCRF-CEM) [2]: 34

Structure (SMILES): COc1cc2c(cc1OC)C(=O)/C(=C/c1cc(C)c(OC(=O)OC[C@H]3OC[C@@H](n4ccc(N)nc4=O)O3)c(C)c1)C2 [Compound 112, CARBONIC ACID 4(S)-(4′-A- MINO-2′-OXO-2H-PYRI- MIDIN-1′-YL)-[1,3]DI- OXOLAN-2(S)-YL- METHYL ESTER 4-(5″,6″-DI- METHOXY-1″-OXO-IN- DAN-2″-YLIDENE- METHYL)-2,6-DI- METHYL-PHENYL ESTER]
- IC50 ([2]; CCRF-CEM, read-out: IC50 in μM (3H-TdR incorporation at 72 hr) CEM/dCK- 24 h, CEM/dCK- (CCRF-CEM deoxycytidine kinase-deficient), 24 h exposure to drug, wash, another 48 hr): 0.057 µM
- Factor (Resistance Factor = Ratio of dCK- on Wild-type CCRF-CEM) [2]: 10

Structure (SMILES): COc1ccc(C(OC[C@H]2OC[C@@H](n3ccc(N)nc3=O)O2)(c2ccccc2)c2ccccc2)cc1 [Compound 134, 4-AMINO-1-{2-[(4-METH- OXY-PHENYL)-DI- PHENYL-METH- OXYMETHYL]-[1,3]DI- OXOLAN-4-YL}-1H-PYRI- MIDIN-2-ONE]
- Factor (Resistance Factor = Ratio of dCK- on Wild-type CCRF-CEM) [2]: 3

Structure (SMILES): Nc1ccn([C@@H]2CO[C@H](COC(=O)C34CC5CC(CC(C5)C3)C4)O2)c(=O)n1 [Compound 110, ADAMANTANE-1-CARBOXYLIC ACID 4-(4-AMINO-2-OXO-2H-PYRI- MIDIN-1-YL)-[1,3]DI- OXOLAN-2-YLMETHYL ESTER]
- Factor (Resistance Factor = Ratio of dCK- on Wild-type CCRF-CEM) [2]: 3 307
